Like-named read-outs stand apart in the source and are kept apart here.
Tests used:
[1] = system: AKR1C2 and AKR1C3 in human neuroblastoma IMR-32 cells; test: Induction of AKR1C enzymes, coumberone metabolism (Tables 12, 13); conditions: for Fold induction of AKR1C2 and AKR1C3 in IMR-32 cells (result in words): inducer varied from 50 nM to 60 μM; for EC50: IMR-32, read-out: EC50 of induction of AKR1C2 and AKR1C3 in IMR-32 cells
Experimental: (§1) Compounds were screened for AKR1C enzyme activity as set forth in Halim, M.; Yee, D. J. and Sames, D. J. Am. Chem. Soc. 2008, […], 14123-14128. […] Specifically, coumberone metabolism studies in IMR-32 can be done as follows: Early-passage (<P25) IMR-32 cells were seeded at a density of 4×10^4 cells/well in 96-well dish. They were then treated with the various inducers or DMSO vehicle (0.5% v/v) control. The concentration of each inducer was varied from 50 nM to 60 μM and the cells were incubated with these for either 24 or 48 hours. 72 hours after seeding, the media was removed and 100 μL of experimental media (DMEM without phenol red supplemented with 100 units/ml penicillin, 100 μg/ml streptomycin, 4 mM L-glutamine and 1% charcoal-dextran treated FBS) was added and incubated for 2 hrs. 100 μl more of the experimental media containing Coumberone (final concentration of 5 μM) was then added. The fluorescence of the cell culture medium was recorded on a plate reader MicroMax 384 connected to a Jobin Yvon Fluorolog by detecting fluorescence at 510 nm upon excitation at 385 nm. The reading was taken every 6 hours for 72 hours. Metabolic conversion rate was obtained by measuring the change in fluorescence per hour for the first 36 hours. The relative increase in metabolic rate was calculated by dividing the metabolic conversion rates of cells incubated with the activator compounds with those incubated with DMSO vehicle. […] Fold-induction is the increase metabolic activity of the reporter. […] “None” indicates no observed induction.
The IMR-32 induction assay was run as follows. Early-passage (<P25) IMR-32 cells were seeded at a density of 4×10^4 cells/well in 96-well dish. They were then treated with the various inducers or DMSO vehicle (0.5% v/v) control. The concentration of each inducer was varied from 50 nM to 60 μM and the cells were incubated with these for either 24 or 48 hours. 72 hours after seeding, the media was removed and 100 μL of experimental media (DMEM without phenol red supplemented with 100 units/ml penicillin, 100 μg/ml streptomycin, 4 mM L-glutamine and 1% charcoal-dextran treated FBS) was added and incubated for 2 hrs. 100 μl more of the experimental media containing Coumberone (final concentration of 5 μM) was then added. The fluorescence of the cell culture medium was recorded on a plate reader MicroMax 384 connected to a Jobin Yvon Fluorolog by detecting fluorescence at 510 nm upon excitation at 385 nm. The reading was taken every 6 hours for 72 hours. Metabolic conversion rate was obtained by measuring the change in fluorescence per hour for the first 36 hours. The relative increase in metabolic rate was calculated by dividing the metabolic conversion rates of cells incubated with the activator compounds with those incubated with DMSO vehicle. […] J. Am. Chem. Soc. 2008, 130, 14123-[…].

[2] = system: human neuroblastoma IMR-32 cells; test: 50% toxicity in the IMR-32 induction assay (Table 12); assay type: cell-based
Experimental: as §1

[3] = system: CCRF-CEM human T-cell acute lymphoblastic leukemia cells; test: In vitro cytotoxicity against CCRF-CEM (XTT / CCK-8 tetrazolium assay, 72 hr); conditions: Homo sapiens, CCRF-CEM, read-out: IC50 (μM) CCRF-CEM
Experimental: The cytotoxicity IC50 of each compound was measured with the XTT assay using the 2,3-bis(2-methoxy-4-nitro-5-sulfophenyl)-5-[(phenylamino)carbonyl]-2H-tetrazolium hydroxide (XTT) microculture method as described in Scudiero et al., Cancer Res., 48:4827 (1988), the contents of which are hereby incorporated by reference in their entirety. The CCK-8 assay is a cell counting kit-8 (CCK-8) tetrazolium assay using a 96-well microplate (Dojindo Molecular Technologies, Inc., Rockville, Md.) (M. Ishiyama et al., Biol. Pharm. Bull. 19: 1518, 1996). Absorbance was measured by Powerwave a XS microplate spectrophotometer. This method described is considered a general method in vitro cytotoxicity studies.
The data in Tables 2X, 3A-E, 4, 5, and 6 were obtained using the cell counting kit-8 (CCK-8) tetrazolium assay in a 96-well microplate. Five to seven concentrations of each compound in triplicate were used, and the IC50 values were determined by CompuSyn software automation (Chou T C. and Martin N. ComboSyn, Inc., 2006) based on the median-effect equation and plot (Chou T C. J. Theor. Biol. 59:235-276, 1976; Chou T C. Pharmacol. Rev. 58: 621-681, 2006). […] The r value defines the correlation coefficient of the median-effect plot which signifies the conformity to the mass-action law principle (Chou T C. J. Theor. Biol. 59:235-276, 1976; Chou T C. Pharmacol. Rev. 58:621-681, 2006). These parameters were determined by CompuSyn simulation (available at http://www.combosyn.com).
CCRF-CEM human T-cell acute lymphoblastic leukemia cells and the corresponding vinblastine-resistant cells (CCRF-CEM/VBL100) were cultured at an initial density of 5×10^4 cells per milliliter. The cultured cells were maintained in a 5% CO2-humidified atmosphere at 37° C. in RPMI medium 1640 (GIBCO/BRL) containing penicillin (100 units/mL), streptomycin (100 μg/mL, GIBCO/BRL), and 10% heat-inactivated fetal bovine serum. The cytotoxicity of each Compound of the invention was measured using the 2,3-bis(2-methoxy-4-nitro-5-sulfophenyl)-5-[(phenylamino)carbonyl]-2H-tetrazolium hydroxide (XTT) microculture method as described in Scudiero et al., Cancer Res., 48:4827 (1988), the contents of which are hereby incorporated by reference in their entirety.
Absorbance was measured by Powerwave XS microplate spectrophotometer.

[4] = Homo sapiens, IMR-32, read-out: 50% toxicity in IMR-32 cells
[5] = Homo sapiens, IMR-32, read-out: Fold induction of AKR1C2 and AKR1C3 in IMR-32 cells
[6] = Homo sapiens, IMR-32; read-out: 50% toxicity in IMR-32 cells
[7] = Homo sapiens, IMR-32, sub-head printed inside Table 13 r22; read-out: IC50 (μM) IMR-32

Fold induction of AKR1C2 and AKR1C3 in IMR-32 cells (result in words) [1]	Compound	IC50 [2, 6]	other results
None	CCCCCCC[C@@H](O)[C@H](O)CC#CC#C[C@H](O)c1ccccc1		IC50 ([2]; listed as 19; read-out: 50% toxicity in IMR-32 cells): > 40 µM
	CCCCCCC[C@@H](O)[C@H](O)CC#CC#CCO		IC50 [3]: 5.57 µM
	C=C[C@@H](O)C#CC#CC[C@@H](O)[C@H](O)CCCCCCC [Compound 1]		fold induction at 20 µM [1, 5]: 2; IC50 [2, 4]: > 40 µM
	C=C[C@H](C#CC#CC[C@H]1OC(C)(C)O[C@@H]1CCCCCCC)OC(C)=O [Compound 4]	> 40 µM	fold induction at 20 µM [1, 5]: 1.5
None	CCCCCCC[C@H]1OC(C)(C)O[C@@H]1CC#CC#CC(=O)CC [Compound 5]		
None	C=CC(=O)C#CC#CC[C@H]1OC(C)(C)O[C@@H]1CCCCCCC [Compound 6]		
None	C=C[C@H](C#CC#CC[C@H]1OC(C)(C)O[C@@H]1CCCCCCC)OC [Compound 7]		
None	CCCCCCC[C@H]1OC(C)(C)O[C@@H]1CC#CC(O)CC (stereo partly drawn) [Compound 10]	~25 µM	
None	CCCCCCC[C@H]1OC(C)(C)O[C@@H]1Cc1nnn(Cc2ccccc2)c1C(O)CC (stereo partly drawn) [Compound 11]	~35 µM	
None	CCCCCCC[C@H]1OC(C)(C)O[C@@H]1Cc1c[nH]nn1 [Compound 12]	~35 µM	
None	CCCCCCC[C@H]1OC(C)(C)O[C@@H]1Cc1ccc(C=O)cc1 [Compound 13]	~30 µM	
None	CCCCCCC[C@H]1OC(C)(C)O[C@@H]1Cc1ccc(C(O)CC)cc1 (stereo partly drawn) [Compound 14]	~40 µM	
None	C=CC(O)c1ccc(C[C@H]2OC(C)(C)O[C@@H]2CCCCCCC)cc1 (stereo partly drawn) [Compound 15]	~40 µM	
	C=C[C@H](O)C#CC#CC[C@H](O)[C@@H](O)CCCCCCC [Compound 16]		EC50 ([1]; Homo sapiens): ~3.5 µM; fold induction at 5 µM [1, 5]: 2.3; IC50 [2, 4]: ~12 µM
	C=C[C@H](O)C#CC#CC[C@@H]1OC(C)(C)O[C@H]1CCCCCCC [Compound 17]	~5 µM	
None	O=C1NC2(CCCCC2)C(=O)N2CCC[C@@H]12 [Compound 26]		
None	C=C1CO[C@H]2[C@@H]3C(=O)C[C@@H](C(C)C)[C@]3(C)C[C@H]3OC(=O)C[C@@]3(C)[C@@]12O [Compound 35]	> 50 µM	

Fold induction of AKR1C2 and AKR1C3 in IMR-32 cells (result in words) [1]	Compound	IC50 [2, 6]	other results
None	CCCCCCC[C@H]1OC(C)(C)O[C@@H]1CC#CC#C[C@H](O)c1ccccc1 [Example 20]	~10 µM	
	C=C[C@H](O)C#CC#CC[C@H]1OC(C)(C)O[C@@H]1CCCCCCC [Example 21]	~4 µM	fold induction at 1 µM [1, 5]: 1.4
	CCCCCCC[C@@H](O)[C@H](O)CC#CC#C[C@H](O)c1ccccc1 [Example 24, (1R,7R,8R)-1-phenyl-2,4-pentadecadiyne-1,7,8-triol]		EC50 ([1]; Homo sapiens): ~3.5 µM; fold induction at 5 µM [1, 5]: 1.5; IC50 ([2]; read-out: 50% toxicity in IMR-32 cells): ~8 µM
None	CCCCCCC[C@H]1OC(C)(C)O[C@@H]1CC#CC#C/C=C/C(OC)c1ccccc1 (stereo partly drawn) [Example 25]	~32.5 µM	
None	C=C[C@@](C)(O)C#CC#CC[C@H]1OC(C)(C)O[C@@H]1CCCCCCC [analog 8]		
None	CCCCCCC[C@H]1OC(C)(C)O[C@@H]1CC#CC#C/C=C/CO [analog 9]		
	C=C[C@H](O)C#CC#CC[C@H](O)[C@@H](O)CCCCCCC [drawing 241]		IC50 [3]: 2.69 µM
	CCCCCCC[C@@H](O)[C@H](O)CC#CC#CC(O)/C=C/c1ccccc1 (stereo partly drawn) [drawing 243]		IC50 [3]: 9.46 µM
	CCCCCCC[C@@H](O)[C@H](O)CC#CC#C[C@H](O)c1ccccc1 [drawing 244]		IC50 [3]: 5.96 µM
	CCCCCCC[C@H]1OC(C)(C)O[C@@H]1CC#CC#C[C@H](O)c1ccccc1 [drawing 245]		IC50 [3]: 2.49 µM
	CCCCCCC[C@H]1OC(C)(C)O[C@@H]1Cc1ccc(C=O)cc1 [drawing 246]		IC50 [3]: 12.6 µM
	C=CC(O)c1ccc(C[C@H]2OC(C)(C)O[C@@H]2CCCCCCC)cc1 (stereo partly drawn) [drawing 247]		IC50 [3]: 5.25 µM
	CCCCCCC[C@H]1OC(C)(C)O[C@@H]1Cc1ccc(C(O)CC)cc1 (stereo partly drawn) [drawing 248]		IC50 [3]: 4.18 µM
	CCCCCCC[C@H]1OC(C)(C)O[C@@H]1Cc1nnn(Cc2ccccc2)c1C(O)CC (stereo partly drawn) [drawing 249]		IC50 [2, 7]: 35 µM
	CCCCCCC[C@H]1OC(C)(C)O[C@@H]1Cc1c[nH]nn1 [drawing 250]		IC50 [2, 7]: 35 µM
	CCCCCCC[C@H]1OC(C)(C)O[C@@H]1CC#CC(O)CC (stereo partly drawn) [drawing 251]		IC50 [2, 7]: 25 µM

Compound	Fold induction of AKR1C2 and AKR1C3 in IMR-32 cells (result in words) [1]	IC50 [2, 6]	other results
CC12COC3(O)C4O[C@H]5CCC1(O)C45CC(O)C32C (mixture of isomers) [Compound 33]	None		IC50 [2, 4]: > 40 µM
C[C@@]12COC(=O)[C@]1(C)[C@@H]1O[C@]3(C)[C@@H](O)C[C@]24OC(=O)CC134 (stereo partly drawn) [Compound 31]	None		IC50 [2, 4]: > 40 µM
C[C@]12COC(=O)[C@@]1(C)[C@H]1O[C@@]3(C)[C@H](O)C[C@@]24OC(=O)CC134 (stereo partly drawn) [Compound 32]	None		IC50 [2, 4]: > 40 µM
CC1=C[C@@H]2OC[C@@H]3C[C@@]4(O)C[C@]3(C)[C@]2(CC1)CO4 [Compound 34]	None		IC50 [2, 4]: > 40 µM
CCCCCCC[C@@H](O)[C@H](O)CC#CC#CC[C@H](O)[C@@H](O)CCCCCCC [analog 2]	None		IC50 [2, 4]: ~25 µM

— patent US8859615B2, “Compounds, compositions and methods for reducing toxicity and treating or preventing diseases” (priority 2008, dated 2014)
